14 molecules from the supplement of paper PMC7600603 can be followed below.

Assay [1] deals with DLD1 NRF2-GOF. As to conditions: 72 h; CellTiter-Glo viability. Summed up:
(§1)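 Cells grown in DMEM with 10% FBS were isogenic DLD1 colorectal cancer lines, NRF2 wild-type or CRISPR gain-of-function. In 384-well plates they received library compounds at 5 concentrations over a 10,000-fold range for 72 h before CellTiter-Glo readout on a Pherastar FS reader, normalised to vehicle wells and 100-μM positive-control wells. Dose-response fits used a four-parameter logistic model, from which EC50 and drug sensitivity score, a normalised area under the curve, were obtained.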

Assay [2] deals with DLD1 NRF2-WT. As to conditions: 72 h; CellTiter-Glo viability. Put shortly: as §1
For orientation: ATP-based viability assays read luminescence as a measure of living cells.

For assay [3], the system named is DLD1 NRF2-GOF. Kind of assay: TC50 cytotoxicity; higher = less toxic. The note with it: 72 h; CellTox Green cytotoxicity. Put shortly: (§2)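 After growth in DMEM with 10% FBS, NRF2 wild-type and CRISPR-edited isogenic DLD1 cells were seeded in 384-well plates and given library compounds at 5 concentrations across a 10,000-fold range. Fluorescence from CellTox Green was taken on a Pherastar FS reader after 72 h and normalised against vehicle wells and 100-μM positive-control wells. From logistic dose-response fits of cytotoxicity came the TC50 and the drug sensitivity score, a normalised area under the curve.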

The subject of assay [4] is DLD1 NRF2-WT. Put plainly: TC50 cytotoxicity; higher = less toxic. As to conditions: 72 h; CellTox Green cytotoxicity. Put shortly:
as §2

The subject of assay [5] is DLD1 NRF2-GOF. Kind of assay: drug sensitivity score (DSS) cytotoxicity (DSS score); higher = more toxic; extreme values may be limits of the assay. As to conditions: 72 h; CellTox Green cytotoxicity. Put shortly:
as §2

Assay [6] has as its system DLD1 NRF2-WT. The description is as above. As to conditions: 72 h; CellTox Green cytotoxicity. Summed up:
as §2

The test system of assay [7] is DLD1 NRF2-GOF. Put plainly: drug sensitivity score (DSS) viability (DSS score); higher = more sensitive; extreme values may be limits of the assay. The note with it: 72 h; CellTiter-Glo viability. Summed up:
as §1

Assay [8] concerns DLD1 NRF2-WT. The assay is described as above. As to conditions: 72 h; CellTiter-Glo viability. Put shortly:
as §1

As to `Cc1[nH]c2ccccc2c1CCNCc1ccc(/C=C/C(=O)NO)cc1` [Panobinostat], the values for the EC50 viability in the assay on DLD1 NRF2-GOF [1] and in the assay with DLD1 NRF2-WT [2] were 70.1 nM and 64.9 nM, respectively. In addition, the values for the TC50 cytotoxicity in the assay with DLD1 NRF2-GOF [3] and in the assay with DLD1 NRF2-WT [4] were above 1000 nM and 124 nM, respectively. For the same molecule, the drug sensitivity score came to 1.1 with DLD1 NRF2-GOF [5], 6.6 in the assay on DLD1 NRF2-WT [6], 11.2 with DLD1 NRF2-GOF [7] and 13.3 in the assay on DLD1 NRF2-WT [8].
Turning to `C=CC[C@@H]1/C=C(\C)C[C@H](C)C[C@H](OC)[C@H]2O[C@@](O)(C(=O)C(=O)N3CCCC[C@H]3C(=O)O[C@H](/C(C)=C/[C@@H]3CC[C@@H](O)[C@H](OC)C3)[C@H](C)[C@@H](O)CC1=O)[C@H](C)C[C@@H]2OC` [Tacrolimus], the EC50 viability in the assay with DLD1 NRF2-GOF [1] was determined as 844 nM; in the assay with DLD1 NRF2-WT [2], 933 nM. Also, the TC50 cytotoxicity with DLD1 NRF2-GOF [3] and with DLD1 NRF2-WT [4] was above 10000 nM each time. The drug sensitivity score was determined as 0 with DLD1 NRF2-GOF [5], 0 with DLD1 NRF2-WT [6], 5 in the assay on DLD1 NRF2-GOF [7] and 4.5 in the assay with DLD1 NRF2-WT [8].
Take `NC[C@@](O)(c1ccc(Cl)cc1)c1ccc(-c2cn[nH]c2)cc1`: the EC50 viability stood at 435 nM with DLD1 NRF2-GOF [1] and 1 nM in the assay with DLD1 NRF2-WT [2]. For the same molecule, the TC50 cytotoxicity in the assay on DLD1 NRF2-GOF [3] and with DLD1 NRF2-WT [4] was above 10000 nM throughout. For the same molecule, the drug sensitivity score was 0 with DLD1 NRF2-GOF [5], 0 in the assay on DLD1 NRF2-WT [6], 10.6 in the assay on DLD1 NRF2-GOF [7] and 10.8 with DLD1 NRF2-WT [8].
For the molecule `COc1cc(Br)c(Nc2nc(-c3c(C)nc4ncccn34)cs2)c(Br)c1` [PTC-209], the EC50 viability turned out to be 1440 nM in the assay on DLD1 NRF2-GOF [1] and 464 nM with DLD1 NRF2-WT [2]. In addition, the TC50 cytotoxicity with DLD1 NRF2-GOF [3] and with DLD1 NRF2-WT [4] was above 10000 nM each time. In addition, the drug sensitivity score with DLD1 NRF2-GOF [5] is 0; with DLD1 NRF2-WT [6] it was 0; in the assay on DLD1 NRF2-GOF [7], 6.2; with DLD1 NRF2-WT [8], 10.8.
`COC[C@H](NC(=O)c1cnc(C)s1)C(=O)N[C@@H](COC)C(=O)N[C@@H](Cc1ccccc1)C(=O)[C@@]1(C)CO1` [Oprozomib]: the EC50 viability with DLD1 NRF2-GOF [1] was 50.4 nM; in the assay with DLD1 NRF2-WT [2], 67 nM. The TC50 cytotoxicity is 116 nM in the assay with DLD1 NRF2-GOF [3] and 56.9 nM in the assay on DLD1 NRF2-WT [4]. Further, the drug sensitivity score in the assay on DLD1 NRF2-GOF [5] turned out to be 15.9; in the assay with DLD1 NRF2-WT [6], 19.7; with DLD1 NRF2-GOF [7], 20.2; with DLD1 NRF2-WT [8], 18.8.
Consider `C=CC(=O)Nc1cccc(Nc2nc(Nc3ccc(N4CCN(C(C)=O)CC4)cc3OC)ncc2C(F)(F)F)c1` [Rociletinib], for which the EC50 viability in the assay with DLD1 NRF2-GOF [1] is 3690 nM; in the assay on DLD1 NRF2-WT [2] it was 2440 nM. The TC50 cytotoxicity in the assay with DLD1 NRF2-GOF [3] is above 10000 nM; with DLD1 NRF2-WT [4], 3150 nM. The drug sensitivity score turned out to be 0.7 in the assay on DLD1 NRF2-GOF [5], 1.5 in the assay on DLD1 NRF2-WT [6], 3.1 in the assay with DLD1 NRF2-GOF [7] and 5.3 in the assay with DLD1 NRF2-WT [8].
As for `CCOc1cc2ncc(C#N)c(Nc3ccc(OCc4ccccn4)c(Cl)c3)c2cc1NC(=O)/C=C/CN(C)C` [Neratinib], the EC50 viability in the assay on DLD1 NRF2-GOF [1] is 305 nM; in the assay with DLD1 NRF2-WT [2], 102 nM. For the same molecule, the TC50 cytotoxicity in the assay with DLD1 NRF2-GOF [3] and in the assay on DLD1 NRF2-WT [4] was above 1000 nM in each case. Besides, the drug sensitivity score came to 0 with DLD1 NRF2-GOF [5], 0 with DLD1 NRF2-WT [6], 2.2 in the assay with DLD1 NRF2-GOF [7] and 5.7 in the assay on DLD1 NRF2-WT [8].
In the case of `C[C@@H](Oc1ccc2[nH]nc(/C=C/c3cnn(CCO)c3)c2c1)c1c(Cl)cncc1Cl`, the EC50 viability in the assay on DLD1 NRF2-GOF [1] and with DLD1 NRF2-WT [2] was above 1000 nM each time. Further, the TC50 cytotoxicity with DLD1 NRF2-GOF [3] and with DLD1 NRF2-WT [4] was above 1000 nM each time. Moreover, the drug sensitivity score in the assay on DLD1 NRF2-GOF [5] worked out at 0; in the assay with DLD1 NRF2-WT [6], 0; in the assay on DLD1 NRF2-GOF [7], 2; with DLD1 NRF2-WT [8] it was 1.4.
For the molecule `CCn1c(-c2nonc2N)nc2cnc(Oc3cccc(NC(=O)c4ccc(OCCN5CCOCC5)cc4)c3)cc21`, the EC50 viability stood at 2300 nM with DLD1 NRF2-GOF [1] and 1990 nM with DLD1 NRF2-WT [2]. Besides, the TC50 cytotoxicity in the assay with DLD1 NRF2-GOF [3] is 1550 nM; in the assay on DLD1 NRF2-WT [4], above 10000 nM. Further, the drug sensitivity score in the assay on DLD1 NRF2-GOF [5] was 6.1; in the assay on DLD1 NRF2-WT [6], 1.2; in the assay on DLD1 NRF2-GOF [7], 6.3; with DLD1 NRF2-WT [8], 5.4.
As to `CN[C@@H](C)C(=O)N[C@H]1CN(C(=O)CC(C)C)CC[C@H]2CC[C@@H](C(=O)NC(c3ccccc3)c3ccccc3)N2C1=O` [AT-406], the EC50 viability in the assay with DLD1 NRF2-GOF [1] was 885 nM; with DLD1 NRF2-WT [2], above 10000 nM. Moreover, the TC50 cytotoxicity in the assay with DLD1 NRF2-GOF [3] and in the assay on DLD1 NRF2-WT [4] was above 10000 nM in each case. The drug sensitivity score in the assay with DLD1 NRF2-GOF [5] is 0; with DLD1 NRF2-WT [6], 0; with DLD1 NRF2-GOF [7] it was 2.6; in the assay on DLD1 NRF2-WT [8] it was 0.
With `Cc1nc(=O)c2cc(CN(C)c3ccc(C(=O)N[C@@H](CCC(=O)O)C(=O)O)s3)ccc2[nH]1` [Raltitrexed], the EC50 viability turned out to be 8.3 nM in the assay with DLD1 NRF2-GOF [1] and 14.7 nM in the assay on DLD1 NRF2-WT [2]. Also, the TC50 cytotoxicity in the assay with DLD1 NRF2-GOF [3] and in the assay with DLD1 NRF2-WT [4] was above 1000 nM each time. Moreover, the drug sensitivity score in the assay with DLD1 NRF2-GOF [5] worked out at 0; in the assay with DLD1 NRF2-WT [6] it was 0; in the assay on DLD1 NRF2-GOF [7] it was 18; in the assay on DLD1 NRF2-WT [8], 16.
Consider `Nc1ccn([C@@H]2O[C@H](CO)[C@@H](O)C2(F)F)c(=O)n1` [Gemcitabine], for which the results for the EC50 viability in the assay with DLD1 NRF2-GOF [1] and with DLD1 NRF2-WT [2] were 28.4 nM and 26.7 nM, respectively. Moreover, the TC50 cytotoxicity in the assay on DLD1 NRF2-GOF [3] and in the assay on DLD1 NRF2-WT [4] was above 1000 nM each time. The drug sensitivity score came to 0 with DLD1 NRF2-GOF [5], 0 in the assay on DLD1 NRF2-WT [6], 10.7 in the assay on DLD1 NRF2-GOF [7] and 11.4 in the assay with DLD1 NRF2-WT [8].
In the case of `Nc1ncn([C@@H]2O[C@H](CO)[C@@H](O)[C@H]2O)c(=O)n1` [Azacitidine], the EC50 viability with DLD1 NRF2-GOF [1] came to 1380 nM; with DLD1 NRF2-WT [2], 4010 nM. The TC50 cytotoxicity in the assay with DLD1 NRF2-GOF [3] and with DLD1 NRF2-WT [4] was above 10000 nM in each case. Also, the drug sensitivity score is 0 in the assay with DLD1 NRF2-GOF [5], 0 in the assay on DLD1 NRF2-WT [6], 3.3 in the assay with DLD1 NRF2-GOF [7] and 1 in the assay with DLD1 NRF2-WT [8].
`CC#CC(=O)N1CCC[C@H]1c1nc(-c2ccc(C(=O)Nc3ccccn3)cc2)c2c(N)nccn12` [Acalabrutinib]: the EC50 viability was determined as 110 nM in the assay with DLD1 NRF2-GOF [1] and 284 nM in the assay on DLD1 NRF2-WT [2]. The TC50 cytotoxicity with DLD1 NRF2-GOF [3] and in the assay with DLD1 NRF2-WT [4] was above 1000 nM each time. Besides, the drug sensitivity score was found to be 0 in the assay on DLD1 NRF2-GOF [5], 0 with DLD1 NRF2-WT [6], 4 in the assay with DLD1 NRF2-GOF [7] and 1.7 in the assay with DLD1 NRF2-WT [8].
